Assay results as given in patent US5248674A, “Percutaneous administration of 3'-azide'-deoxythymidine” (Nelson-Sumisho Co., Ltd., priority 1989, dated 1993).
Where two headings read alike, the source gives them in different places. Blank lines part the entries; values can stand above or below the compound they belong to.

Experiments:
[1] = assay type: in vitro ADME, rat (Wistar strain, male); details: rat skin; for promotion of AZT permeation through the skin (in words): in vitro, oleic acid vs water, Azone and S-318 vs 10% oleic acid; for F, AZT permeation rate: n = 3
Method: A. The abdominal skin of a rat (Wistar strain, male, 200 g) was removed after shaving and placed between the chambers of a diffusion cell comprising two chambers having an effective permeation area of 0.95 cm^2 and a capacity of 2.3 ml for each chamber. The chamber of the corneum side received an AZT solution to be tested and the other chamber received water. The cell was warmed to 37° C. while the permeation of the drug towards the opposite chamber was measured. The AZT solution contained […] (5 mg/ml) AZT either in water or an aqueous solution of 10% oleic acid. […] The results are plotted In FIG. 1. The permeation rate during the stable permeation state (Fss) was determined as follows from the slope of the plots between 10 and 24 hours:
B. In a manner similar to that described in A, further agents capable of promoting permeation of AZT were searched. The promotion rate by each of the tested agents was expressed in relative terms when the rate of 10% oleic acid is tentatively determined as 1.
C. In the similar manner as in A and B, the permeation of AZT as a function of its concentration (3.7 mM-112 mM) was studied. 112 mM (about 3%) is a preferred concentration of AZT for practical purposes in producing a percutaneous AZT composition. The combination of a) 3% Azone+20% MP or b) 5% S-318+10% OA+20% PG+10% MP was used as a permeation promoting agent.

reverse transcriptases = details: background statement; cited from earlier work
[2] = In vivo study - percutaneous absorption of AZT without pretreatment with 10% oleic acid; design: species or system rat (Wistar strain, male); details: no pretreatment, rat
Method: In a manner similar to that described in Example 2, the possibility of percutaneous absorption of AZT without pretreatment with 10% oleic acid was studied.
As absorption promoting agents, a) an aqueous solution containing 3% Azone and 20% MP, and b) an aqueous solution containing 5% S-318, 10% OA, 20% PG and 10% MP were prepared. AZT was dissolved at 3.7 mM concentration in each of said absorption agents and 1 ml of the resulting solution was applied to the skin of rats in a similar manner as in Example 2.

[3] = cited from earlier work
[4] = In vivo study - plasma AZT level by percutaneous (oleic acid pretreated skin) and oral administration of AZT; design: species or system rat (Wistar strain, male); details: for concentration at 0.5 h / concentration at 1 h / concentration at 2 h / concentration at 4 h / concentration at 6 h / concentration at 8 h / concentration at 24 h: plasma
Method: Three male rates of Wistar strain weighing about 200 g was allotted to each group. The abdominal portion of the rat was shaven and pretreated with 10% oleic acid for 24 hours. Then a 1 ml aliquot of a solution containing 0.5% (18.7 mM) AZT and 10% oleic acid in water was applied over 4.9 cm^2 area of the skin by a glass cell secured on the body of the rat. AZT level in the plasma sampled at […], 2, 4, 6, 8 and 24 hours after the administration was determined by HPLC. A control group orally received 0.5 ml water containing 0.6 mg AZT.

[5] = 3.7 mM (1 mg/ml) AZT, 3% Azone + 20% MP
[6] = 3.7 mM (1 mg/ml) AZT, 5% S-318 + 10% OA + 20% PG + 10% MP
[7] = 18.7 mM (5 mg/ml) AZT, 3% Azone + 20% MP
[8] = 18.7 mM (5 mg/ml) AZT, 5% S-318 + 10% OA + 20% PG + 10% MP
[9] = 56.2 mM (15 mg/ml) AZT, 3% Azone + 20% MP
[10] = 56.2 mM (15 mg/ml) AZT, 5% S-318 + 10% OA + 20% PG + 10% MP
[11] = 112 mM (30 mg/ml) AZT, 3% Azone + 20% MP
[12] = 112 mM (30 mg/ml) AZT, 5% S-318 + 10% OA + 20% PG + 10% MP
[13] = according to Klecker et al. 1987
[14] = topical or ocular, percutaneous, 1 ml 0.5% AZT + 10% oleic acid, 4.9 cm^2, rat
[15] = oral, 0.6 mg AZT in 0.5 ml water, rat

SMILES: CCCCCCCC/C=C\CCCCCCCC(=O)O [oleic acid]
promotion of AZT permeation through the skin (in words) [1]: promoted permeation of AZT through the skin

SMILES: Cc1cn([C@H]2C[C@H](N=[N+]=[N-])[C@@H](CO)O2)c(=O)[nH]c1=O [AZT, 3'-azide-3'-deoxythymidine]
inhibition of reverse transcriptases (reverse transcriptases): effective inhibitor of reverse transcriptases
AZT level in the plasma ([2]; 3.7 mM AZT with a) 3% Azone + 20% MP or b) 5% S-318 + 10% OA + 20% PG + 10% MP): a high AZT level in the plasma was achieved over a period of 10 hours
efficient penetration of AZT through the skin ([2]; 3.7 mM AZT, promoting agent a) 3% Azone + 20% MP): especially remarkable
relative promotion rate [1, 5]: 6.2
F, AZT permeation rate [1, 5]: 0.28 μmol/cm^2 /h
relative promotion rate [1, 6]: 4.4
F, AZT permeation rate [1, 6]: 0.20 μmol/cm^2 /h
relative promotion rate [1, 7]: 16.4
F, AZT permeation rate [1, 7]: 0.74 μmol/cm^2 /h
relative promotion rate [1, 8]: 14.0
F, AZT permeation rate [1, 8]: 0.63 μmol/cm^2 /h
relative promotion rate [1, 9]: 49.3
F, AZT permeation rate [1, 9]: 2.22 μmol/cm^2 /h
relative promotion rate [1, 10]: 53.6
F, AZT permeation rate [1, 10]: 2.41 μmol/cm^2 /h
relative promotion rate [1, 11]: 71.6
F, AZT permeation rate [1, 11]: 3.22 μmol/cm^2 /h
relative promotion rate [1, 12]: 108
F, AZT permeation rate [1, 12]: 4.85 μmol/cm^2 /h
permeation rate during the stable permeation state (Fss) ([1]; 37° C, 18.7 mM (5 mg/ml) AZT in 10% oleic acid, slope between 10 and 24 hours): 0.045 μmol/cm^2 /h
clearance (Cltot) [3, 13]: 78 L/h
plasma AZT level required for AIDS treatment (Css) [3, 13]: 1000 nM
maintenance of an adequate AZT level in blood ([3]; conventional oral administration, 5 mg/kg every 4 hours, Klecker et al. 1987): impossible to maintain an adequate AZT level in blood
percutaneous absorption of AZT ([4]; applied to rat skin as a simple water solution (data not shown)): not observed at all
percutaneous absorption of AZT, detection in plasma ([4]; in the presence of oleic acid, rat): could be detected in the plasma over 24 hours
drug level in the plasma after oral administration ([4]; oral, 0.6 mg AZT, rat): undetectable at 6 hours after the administration
concentration at 0.5 h [4, 14]: 200 nM
concentration at 1 h [4, 14]: 600 nM
concentration at 2 h [4, 14]: 700 nM
concentration at 4 h [4, 14]: 1500 nM
concentration at 6 h [4, 14]: 1500 nM
concentration at 8 h [4, 14]: 1500 nM
concentration at 24 h [4, 14]: 4000 nM
concentration at 0.5 h [4, 15]: 3100 nM
concentration at 1 h [4, 15]: 2500 nM
concentration at 2 h [4, 15]: 500 nM
concentration at 4 h [4, 15]: 200 nM
concentration at 6 h [4, 15]: < 100 nM
concentration at 8 h [4, 15]: < 100 nM
concentration at 24 h [4, 15]: < 100 nM

promotion of AZT permeation through the skin (in words) [1]: greatly accelerated
SMILES: CCCCCCCCCCCCN1CCCCCC1=O [Azone, 1-dodecylazacycloheptane-2-one]
